The target of data set [1] is T1, Solute carrier family 15 member 1 (Homo sapiens, UniProt P46059).
T1 sequence (P46059 whole entry): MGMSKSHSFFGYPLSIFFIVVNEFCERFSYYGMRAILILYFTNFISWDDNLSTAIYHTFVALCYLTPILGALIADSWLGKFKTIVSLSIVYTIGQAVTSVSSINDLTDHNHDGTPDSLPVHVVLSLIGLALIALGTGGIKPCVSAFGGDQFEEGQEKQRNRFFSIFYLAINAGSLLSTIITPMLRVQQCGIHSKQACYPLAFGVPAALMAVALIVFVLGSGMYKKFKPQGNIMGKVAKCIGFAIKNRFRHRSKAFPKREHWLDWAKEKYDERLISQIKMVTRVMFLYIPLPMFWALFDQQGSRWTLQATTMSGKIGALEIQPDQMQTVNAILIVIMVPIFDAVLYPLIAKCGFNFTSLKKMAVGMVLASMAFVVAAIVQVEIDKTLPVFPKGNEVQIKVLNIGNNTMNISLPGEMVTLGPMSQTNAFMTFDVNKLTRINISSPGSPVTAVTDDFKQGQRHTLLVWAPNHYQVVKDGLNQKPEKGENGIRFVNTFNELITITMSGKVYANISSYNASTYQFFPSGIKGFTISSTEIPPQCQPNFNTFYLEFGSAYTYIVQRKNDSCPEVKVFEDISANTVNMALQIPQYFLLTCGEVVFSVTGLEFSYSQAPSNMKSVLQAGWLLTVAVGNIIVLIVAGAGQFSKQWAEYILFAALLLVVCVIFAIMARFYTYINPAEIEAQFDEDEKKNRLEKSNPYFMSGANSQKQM
Nature of the data set: TP_TRANSPORTER: inhibition of Gly-Sar uptake in Xenopus laevis oocytes. The class given is functional, cell-based, Oocyte.

In data set [2] the target is T2, Solute carrier family 15 member 1 (Homo sapiens) (UniProt P46059).
T2 sequence (whole entry): T1 sequence (P46059 whole entry)
The data set is described as follows: TP_TRANSPORTER: inhibition of VACV uptake (VACV: 0.2 uM, Gly-Sar: 10000 uM) in Xenopus laevis oocytes. The class given is functional, cell-based. The settings on record: Oocyte.

For data set [3], the target named is T2, Solute carrier family 15 member 1 (Homo sapiens). Nature of the data set: TP_TRANSPORTER: inhibition of VACV uptake (VACV: 0.2 uM, Gly-Gly-Gly: 10000 uM) in Xenopus laevis oocytes. The class given is functional, cell-based. The settings on record: Oocyte.
Data set [4] has the same target. The data set is described as follows: TP_TRANSPORTER: inhibition of VACV uptake (VACV: 0.2 uM, Carnosine: 10000 uM) in Xenopus laevis oocytes. The class given is functional, cell-based. The following applies: Oocyte.
Substrate in data set [5]: CC(C)[C@H](N)C(=O)OCCOCn1cnc2c(=O)nc(N)[nH]c21
The following applies: Xenopus laevis; Oocyte.

Non-standard residues stand in square brackets, D forms with d. Residues, ends and D or L forms follow the SMILES beside them. Sar = CNCC(=O)O

The results in this text go back to ChEMBL document CHEMBL2074356, “Direct evidence for peptide transporter (PepT1)-mediated uptake of a nonpeptide prodrug, valacyclovir” (Biochem Biophys Res Commun, 1998).

Usually Ki stands for the equilibrium dissociation constant of an inhibitor or competing ligand from its target. Lower therefore signals higher affinity. For orientation: Km means the concentration of substrate that gives half-maximal velocity.

For the molecule `CC(C)[C@H](N)C(=O)OCCOCn1cnc2c(=O)[nH]c(N)nc21` [VALACYCLOVIR], the Ki in data set [1] worked out at 4.08 mM.

In the case of `CN(CC(=O)O)C(=O)CN` (H-Gly-[Sar]-OH), the Activity result in data set [2] was “inhibitor [55% (at a rough estimate) of control]”.

Consider `NCC(=O)NCC(=O)NCC(=O)O`, for which the Activity entry in data set [3] was “inhibitor [55% (at a rough estimate) of control]”.

Consider `NCCC(=O)N[C@@H](Cc1c[nH]cn1)C(=O)O`, for which, in data set [4], the Activity entry is “inhibitor [70% (at a rough estimate) of control]”.

B1: Solute carrier family 15 member 1 (Homo sapiens), P46059 (protein)
chain: T1 sequence (P46059 whole entry)
Take B1: the Km in data set [5] is 5.94 mM.
